Measured values: ChEMBL document CHEMBL5247613, “Design, synthesis and biological evaluation of a new class of Hsp90 inhibitors vibsanin C derivatives” (Eur J Med Chem, 2022)
Active and inactive are the calls of the source. The rule behind the calls is not given here.

Experiments:
Reticulocyte [1] = assay: Inhibition of HSP90 in rabbit reticulocyte lysates at 10 uM incubated for 3 hrs by denatured luciferase refolding assay; assay type: subcellular; conditions: Oryctolagus cuniculus
[2] = Inhibition of HSP90 in rabbit reticulocyte lysates incubated for 3 hrs by denatured luciferase refolding assay; assay type: subcellular, Oryctolagus cuniculus
HL-60 = assay: Antiproliferative activity against human HL-60 cells assessed as reduction in cell viability incubated for 48 hrs by MTT assay; assay type: functional, cell-based; conditions: HL-60, 48 h
A549 = assay: Antiproliferative activity against human A549 cells assessed as reduction in cell viability incubated for 48 hrs by MTT assay; assay type: functional, cell-based; conditions: A549, 48 h
SW480 = assay: Antiproliferative activity against human SW480 cells assessed as reduction in cell viability incubated for 48 hrs by MTT assay; assay type: functional, cell-based; conditions: SW480, 48 h
MCF7 = assay: Antiproliferative activity against human MCF7 cells assessed as reduction in cell viability incubated for 48 hrs by MTT assay; assay type: functional, cell-based; conditions: MCF7, 48 h
SMMC-7721 = assay: Antiproliferative activity against human SMMC-7721 cells assessed as reduction in cell viability incubated for 48 hrs by MTT assay; assay type: functional, cell-based; conditions: SMMC-7721, 48 h
Reticulocyte [3] = assay: Inhibition of HSP90 in rabbit reticulocyte lysates at 500 uM incubated for 3 hrs by denatured luciferase refolding assay; assay type: subcellular; conditions: Oryctolagus cuniculus
[4] = target: T1, Heat shock protein HSP90 (Homo sapiens) (UniProt P07900+P08238); assay: Binding affinity to full length HSP90 (unknown origin) expressed in Escherichia coli BL21(DE3) cells at 20 uM by NMR STD assay
[5] = target: T1, Heat shock protein HSP90 (Homo sapiens); assay: Inhibition of HSP90 in human HL-60 cells assessed as increase in HSP27 protein expression incubated for 24 hrs by western blot analysis; assay type: cell-based; conditions: dose 1-10 µM
[6] = target: T1, Heat shock protein HSP90 (Homo sapiens); assay: Inhibition of HSP90 in human HL-60 cells assessed as decrease in CDK4 protein expression incubated for 24 hrs by western blot analysis; assay type: cell-based; conditions: dose 1-10 µM

Row | Compound | inhibition (Reticulocyte [1]) [%] | other results
1 | CC(=O)C[C@@H]1C(=O)C(COC(=O)c2ccccc2)=CC[C@](C)(CCC=C(C)C)[C@H]1/C=C/OC(=O)C=C(C)C | 36.9 | 
2 | CC(C)=CCC[C@@]1(C)CC=C(CO)C(=O)[C@H]2C[C@@](C)(O)[C@@H](C=O)[C@@H]21 | 13.3 | 
3 | CC(=O)C[C@@H]1C(=O)C(COC(=O)C2CCCCC2)=CC[C@](C)(CCC=C(C)C)[C@H]1/C=C/OC(=O)C=C(C)C | 40.3 | 
4 | CC(C)=CCC[C@@]1(C)CC=C(COC(=O)c2ccc3cc[nH]c3c2)c2[nH]c(C)cc2[C@@H]1/C=C/OC(=O)C=C(C)C | 50.8 | 
5 | CC(C)=CCC[C@@]1(C)CC=C(CCl)c2oc(C)cc2[C@@H]1/C=C/OC(=O)C=C(C)C | 32.6 | 
6 | CC(C)=CCC[C@@]1(C)CC=C(CNc2ccc(F)cc2)c2oc(C)cc2[C@@H]1/C=C/OC(=O)C=C(C)C | 13.1 | 
7 | CC(=O)C[C@@H]1C(=O)C(CO)=CC[C@](C)(CCC(=O)C(C)C)[C@H]1/C=C/OC(=O)C=C(C)C | 0.69 | 
8 | CC(C)=CCC[C@@]1(C)CC=C(CO)[C@H]2O[C@](C)(O)C[C@H]2[C@@H]1/C=C/OC(=O)C=C(C)C | 14.2 | 
9 | CC(C)=CCC[C@@]1(C)CC=C(COC(=O)CCC(=O)O)c2[nH]c(C)cc2[C@@H]1/C=C/OC(=O)C=C(C)C | 71 | IC50 [2]: 6.05 µM
10 | CC(C)=CCC[C@@]1(C)CC=C(COC(=O)CCC(=O)O)c2nnc(C)cc2[C@@H]1/C=C/OC(=O)C=C(C)C | 94.6 | IC50 (HL-60): > 40 µM; IC50 [2]: 0.27 µM; IC50 (A549): > 40 µM; IC50 (SW480): > 40 µM; IC50 (MCF7): > 40 µM; IC50 (SMMC-7721): > 40 µM
11 | CO[C@@H]1[C@@H](OC(N)=O)[C@@H](O)[C@H](Oc2ccc3c(O)c(NC(=O)c4ccc(O)c(CC=C(C)C)c4)c(=O)oc3c2C)OC1(C)C [NOVOBIOCIN] |  | IC50 [2]: 468 µM; inhibition (Reticulocyte [3]): 78.9%
12 | CC(=O)C[C@@H]1C(=O)C(CO)=CC[C@](C)(CCC=C(C)C)[C@H]1/C=C/OC(=O)C=C(C)C | 30 | 
13 | CC(=O)C[C@@H]1C(=O)C(COC(=O)c2cc(Cl)ccc2N)=CC[C@](C)(CCC=C(C)C)[C@H]1/C=C/OC(=O)C=C(C)C | 61.8 | IC50 [2]: 4.09 µM
14 | CC(C)=CCC[C@@]1(C)CC=C(CO)c2nnc(C)cc2[C@@H]1/C=C/OC(=O)C=C(C)C | 23.6 | 
15 | CC(C)=CCC[C@@]1(C)CC=C(Cn2ccnc2)c2oc(C)cc2[C@@H]1/C=C/OC(=O)C=C(C)C | 37.1 | 
16 | CC(=O)O[C@H]1C(=O)[C@@]2(C)[C@H]([C@H](OC(=O)c3ccccc3)[C@]3(O)C[C@H](OC(=O)[C@H](O)[C@@H](NC(=O)c4ccccc4)c4ccccc4)C(C)=C1C3(C)C)[C@]1(OC(C)=O)CO[C@@H]1C[C@@H]2O [PACLITAXEL] |  | IC50 (HL-60): < 0.008 µM; IC50 (A549): < 0.008 µM; IC50 (SW480): < 0.008 µM; IC50 (MCF7): < 0.008 µM; IC50 (SMMC-7721): 0.097 µM
17 | CC(C)=CCC[C@@]1(C)CC=C(CN2CCN(C(C)C)CC2)c2nnc(C)cc2[C@@H]1/C=C/OC(=O)C=C(C)C | 20.1 | 
18 | CC(C)=CCC[C@@]1(C)CC=C(CCl)c2nnc(C)cc2[C@@H]1/C=C/OC(=O)C=C(C)C | 85.9 | IC50 [2]: 2.37 µM
19 | CC(C)=CCC[C@@]1(C)CC=C(COC(=O)c2ccc3cc[nH]c3c2)c2oc(C)cc2[C@@H]1/C=C/OC(=O)C=C(C)C | 42.9 | 
20 | CC(=O)C[C@@H]1C(=O)C(COC(C)=O)=CC[C@](C)(CCC=C(C)C)[C@H]1/C=C/OC(=O)C=C(C)C | 34.9 | 
21 | CC(=O)C[C@@H]1C(=O)C(COC(=O)CCC(=O)O)=CC[C@](C)(CCC=C(C)C)[C@H]1/C=C/OC(=O)C=C(C)C | 66.8 | IC50 [2]: 7.52 µM

Row | Compound | inhibition (Reticulocyte [1]) [%] | other results
22 | CC(C)=CCC[C@@]1(C)CC=C(COC(=O)CCC(=O)O)c2oc(C)cc2[C@@H]1/C=C/OC(=O)C=C(C)C | 88.2 | IC50 (HL-60): 16.9 µM; IC50 [2]: 0.27 µM; IC50 (A549): > 40 µM; IC50 (SW480): > 40 µM; Activity [4]: Active; IC50 (MCF7): > 40 µM; inhibition [5]: Dose-Dependent Effect; inhibition [6]: Dose-Dependent Effect; IC50 (SMMC-7721): > 40 µM
23 | CC(=O)C[C@@H]1C(=O)[C@H](CO)CC[C@](C)(CCCC(C)C)[C@H]1/C=C/OC(=O)C=C(C)C | 22.8 | 
24 | CC(C)=CCC[C@]1(C)/C=C/[C@@H](OC(=O)C=C(C)C)[C@](C)(O)/C=C/C(=O)/C(CN2CCN(C)CC2)=C\C1 | 93.6 | IC50 [2]: 0.98 µM
25 | CC(C)=CCC[C@@]1(C)CC=C(CN2CCOCC2)c2[nH]c(C)cc2[C@@H]1/C=C/OC(=O)C=C(C)C | 6.37 | 
26 | CC(=O)C[C@@H]1C(=O)C(CS)=CC[C@](C)(CCC=C(C)C)[C@H]1/C=C/OC(=O)C=C(C)C | 0.32 | 
27 | CC(C)=CCC[C@@]1(C)CC=C(CO)c2[nH]c(C)cc2[C@@H]1/C=C/OC(=O)C=C(C)C | 10.6 | 
28 | CC(C)=CCC[C@@]1(C)CC=C(C=O)c2[nH]c(C)c(Cl)c2[C@@H]1/C=C/OC(=O)C=C(C)C | 45 | 
29 | CC(C)=CCC[C@@]1(C)CC=C(COC(=O)CCC(=O)Nc2ccc(F)cc2)c2[nH]c(C)cc2[C@@H]1/C=C/OC(=O)C=C(C)C | 48 | 
30 | CC(=O)C[C@@H]1C(=O)C(CNc2ccc(F)cc2)=CC[C@](C)(CCC=C(C)C)[C@H]1/C=C/OC(=O)C=C(C)C | 64.5 | 
31 | CC(C)=CCC[C@@]1(C)CC=C(CNc2ccc(F)cc2)c2nnc(C)cc2[C@@H]1/C=C/OC(=O)C=C(C)C | 49.3 | 
32 | CC(=O)C[C@@H]1C(=O)C(CCl)=CC[C@](C)(CCC=C(C)C)[C@H]1/C=C/OC(=O)C=C(C)C | 53.1 | 
33 | CC(C)=CCC[C@@]1(C)CC=C(CF)c2nnc(C)cc2[C@@H]1/C=C/OC(=O)C=C(C)C | 77.8 | IC50 (HL-60): 3.45 µM; IC50 [2]: 0.37 µM; IC50 (A549): 20.5 µM; IC50 (SW480): 18.2 µM; IC50 (MCF7): 17.6 µM; IC50 (SMMC-7721): 15.7 µM
34 | CC(=O)C[C@@H]1C(=O)C(CF)=CC[C@](C)(CCC=C(C)C)[C@H]1/C=C/OC(=O)C=C(C)C | 84.3 | IC50 [2]: 4.1 µM
35 | CC(=O)C[C@@H]1C(=O)C(CO)=CC[C@](C)(CCC2OC2(C)C)[C@H]1/C=C/OC(=O)C=C(C)C (stereo partly specified) | 36.6 | 
36 | CC(C)=CCC[C@@]1(C)CC=C(COC(=O)c2ccc3cc[nH]c3c2)c2nnc(C)cc2[C@@H]1/C=C/OC(=O)C=C(C)C | 66.6 | IC50 [2]: 4.57 µM
37 | CC(C)=CCC[C@@]1(C)CC=C(CO)c2oc(C)cc2[C@@H]1/C=C/OC(=O)C=C(C)C | 82.3 | 
38 | CC(C)=CCC[C@@]1(C)CC=C(COC(=O)CCC(=O)Nc2ccc(F)cc2)c2nnc(C)cc2[C@@H]1/C=C/OC(=O)C=C(C)C | 54.1 | 
39 | CC(=O)C[C@@H]1C(=O)C(CN2CCOCC2)=CC[C@](C)(CCC=C(C)C)[C@H]1/C=C/OC(=O)C=C(C)C | 14.2 | 
40 | CC(C)=CCC[C@@]1(C)CC=C(COC(=O)CCC(=O)Nc2ccc(F)cc2)c2oc(C)cc2[C@@H]1/C=C/OC(=O)C=C(C)C | 57 | 
41 | CC(C)=CCC[C@@]1(C)CC=C(CF)c2[nH]c(C)cc2[C@@H]1/C=C/OC(=O)C=C(C)C | 68.8 | IC50 [2]: 3.61 µM
42 | CC(=O)C[C@@H]1C(=O)C(CN2CCN(C(C)C)CC2)=CC[C@](C)(CCC=C(C)C)[C@H]1/C=C/OC(=O)C=C(C)C | 23.8 | 
